Values of other authors, collected in patent US20230398047A1, “COMPOSITION COMPRISING SKIN CARE ACTIVE INGREDIENT AND TWO POLYGLYCERYL FATTY ACID ESTERS” (L'OREAL, priority 2021, published 2023).

details: octan-1-ol/water; values said to be known or calculated

logP	Structure (SMILES)
3-O-ETHYL ASCORBIC ACID (LogP = −1.3)	CCOC1=C(O)C(=O)O[C@@H]1[C@@H](O)CO [3-O-ETHYL ASCORBIC ACID, 3-O-ethyl ascorbic acid]
ASCORBYL GLUCOSIDE (logP = −3.4)	O=C1O[C@H]([C@@H](O)CO)C(O)=C1O[C@H]1O[C@H](CO)[C@@H](O)[C@H](O)[C@H]1O [ASCORBYL GLUCOSIDE, ascorbyl glucoside]
PHENYLETHYL RESORCINOL(logP = 3.07)	CC(c1ccccc1)c1ccc(O)cc1O (centres unmarked) [PHENYLETHYL RESORCINOL, 4-(1-phenylethyl)-1,3-benzenediol]

Second part, the compound before the results:

Structure (SMILES)	logP
CC(O)C[C@H]1OC[C@@H](O)[C@H](O)[C@H]1O (stereo partly drawn) [HYDROXYPROPYL TETRAHYDROPYRANTRIOL, C-beta-D-xylopyranoside-2-hydroxpropane]	HYDROXYPROPYL TETRAHYDROPYRANTRIOL (logP = −1.5)
NC(=O)c1cccnc1 [NIACINAMIDE, niacinamide, reference compound]	NIACINAMIDE (LogP = −0.37)
